Data published in patent EP1280528B1, “R-ELIPRODIL FOR TREATING GLAUCOMA” (Alcon, Inc, priority 2000, dated 2001).
pKi: −log10 of the molar value. Entries after “also recorded” stand apart in the source; their conditions may differ.

Key:
[1] = U.S. Patent No. 5,547,963; cited from earlier work
[2] = plasma level in the anesthetized cat protocol; assay type: in vivo; conditions: 0.1 mg/kg dose, intravenous infusion
[3] = test system: rat retinal ganglion cells; assay: glutamate-induced rat retinal ganglion cell death; assay type: cell-based; conditions: 10nM for 30 minutes, then 100µM glutamate, viable cells counted after 3 days; Figure 1
Source text: Retinal ganglion cells were selected as they represent the retinal cell that degenerates in glaucoma. MK-801 was selected as a reference NMDA antagonist.
Isolation of rat retinal ganglion cells and assessment of viability in the absence and presence of glutamate was described in Pang, et al., "Protection by Eliprodil Against Excitotoxicity in Cultured Rat Retinal Ganglion Cells", Investigative Ophthalmology & Visual Science, Vol. 40(6), pp. 1170-1176, May, 1999. Briefly, isolated cultured rat retinal ganglion cells were treated with racemic (R/S) eliprodil (10nM), R-eliprodil (10nM), or S-eliprodil (10nM) for thirty (30) minutes followed by the addition of 100µM glutamate. Survival was determined by counting viable cells after an incubation period of three (3) days. Survival with vehicle alone defines 100%. […] S-eliprodil was ineffective.

[4] = test system: piglet Purkinje fibers from the heart; assay: action potential duration in piglet Purkinje fibers; conditions: for concentration with statistically significant prolongation of APD90: action potential duration at 90% repolarization; for maximum effect on APD90: comparison between compounds
Experimental: (§1) Eliprodil and its enantiomers were evaluated for their potential for prolonging QTc by determining their dose-related effects on cardiac electrical activity. Two different experimental models were utilized for these studies: (1) Action potential duration in piglet Purkinje fibers from the heart and (2) Electrocardiographic parameters in pentobarbital anesthetized cats.

hippocampal slices = assay: recovery of synaptic transmission after hypoxia in hippocampal slices; assay type: cell-based; conditions: for efficacy for recovery of excitatory post synaptic potentials following hypoxia: at a comparable dose
Experimental: Dose-response relations comparing the efficacy of Racemic (R/S)-eliprodil (open circles), R-eliprodil (closed circles) and memantine (closed diamonds) for their ability to improve recovery of synaptic transmission following a 15 minute period of hypoxia in hippocampal slices in vitro (Figure 2).
Preparation of the hypoxic hippocampal slice preparation has been reported by Reyes et al., "Eliprodil, a non-competitive, NR2B-selective NMDA antagonist, protects pyramidal neurons in hippocampal slices from hypoxic/ischemic damage", Brain Research, Vol. 782, pp. 212-218, 1998. Briefly, hippocampal slices were prepared acutely the same day as the experiment, and each compound was bath applied 30 minutes prior to delivery of the 15 minute hypoxic insult. Recovery of evoked epsps is expressed as percent of the initial, pre-hypoxia epsp maximum slope, with this percent recovery assessed 60 minutes after reoxygenation. Each point is the mean ± S.E.M. of 8 slices at each dose, and EC50's were calculated from a single-active site Lineweaver-Burke linear fit.

[5] = test system: lateral vestibular nucleus; assay: NMDA-induced firing rate of the lateral vestibular nucleus in vivo
NMDA receptor = NMDA receptor (Homo sapiens, UniProt Q05586+Q13224); assay: electrophysiology and ligand displacement studies at the NMDA receptor; assay type: binding
[6] = test system: pentobarbital-anesthetized cats; assay: hemodynamic and electrocardiographic parameters in anesthetized cats; conditions: increasing doses 0.01 to 3 mg/kg, five-minute intravenous infusion every 20 minutes
Experimental: as §1
Eliprodil and its two enantiomers were also evaluated for hemodynamic and electrocardiographic parameters in pentobarbital-anesthetized cats. […] Compounds were administered at increasing doses from 0.01 to 3 mg/kg as a five-minute intravenous infusion every 20 minutes. […]

α1-adrenergic = assay: binding studies, α1-adrenergic
Source text: (§2) The role of these pharmacological activities in the neuroprotective efficacy has not been established for this drug.

5-HT2A = 5-HT2A (Homo sapiens, UniProt P28223); assay: binding studies, 5-HT2A
Source text: as §2

humans = conditions: following some doses in humans; cited from earlier work
sigma receptors = conditions: rat brain; U.S. Patent No. 5,023,266; cited from earlier work
histamine H1 = histamine H1 (Homo sapiens, UniProt P35367); assay: binding studies, histamine H1
Source text: as §2

5-HT7 = 5-HT7 (Homo sapiens, UniProt P34969); assay: binding studies, 5-HT7
Source text: as §2

β3-adrenergic = β3-adrenergic (Homo sapiens, UniProt P13945); assay: binding studies, β3-adrenergic
Source text: as §2

histamine H2 = histamine H2 (Homo sapiens, UniProt P25021); assay: binding studies, histamine H2
Source text: as §2

5-HT uptake = 5-HT uptake (Homo sapiens, UniProt P31645); assay: binding studies, 5-HT uptake
Source text: as §2

5-HT1A = molecular target: T1, 5-HT1A (Homo sapiens, UniProt P08908); assay: binding studies, 5-HT1A
T1 sequence (P08908 1-422): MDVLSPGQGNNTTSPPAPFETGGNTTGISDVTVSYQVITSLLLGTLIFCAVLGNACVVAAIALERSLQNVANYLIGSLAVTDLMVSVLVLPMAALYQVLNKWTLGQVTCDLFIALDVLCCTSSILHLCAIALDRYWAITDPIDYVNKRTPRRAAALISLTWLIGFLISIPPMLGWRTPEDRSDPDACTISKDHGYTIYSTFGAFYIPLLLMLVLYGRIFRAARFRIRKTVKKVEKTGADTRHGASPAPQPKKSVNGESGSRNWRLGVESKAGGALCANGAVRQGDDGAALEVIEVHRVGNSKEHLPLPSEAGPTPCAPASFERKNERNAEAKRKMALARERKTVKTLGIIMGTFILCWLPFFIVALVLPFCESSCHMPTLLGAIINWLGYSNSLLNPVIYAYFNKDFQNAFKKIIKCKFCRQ
Source text: as §2

Chain of NMDA receptor (Q13224 27-1484, other chains not shown): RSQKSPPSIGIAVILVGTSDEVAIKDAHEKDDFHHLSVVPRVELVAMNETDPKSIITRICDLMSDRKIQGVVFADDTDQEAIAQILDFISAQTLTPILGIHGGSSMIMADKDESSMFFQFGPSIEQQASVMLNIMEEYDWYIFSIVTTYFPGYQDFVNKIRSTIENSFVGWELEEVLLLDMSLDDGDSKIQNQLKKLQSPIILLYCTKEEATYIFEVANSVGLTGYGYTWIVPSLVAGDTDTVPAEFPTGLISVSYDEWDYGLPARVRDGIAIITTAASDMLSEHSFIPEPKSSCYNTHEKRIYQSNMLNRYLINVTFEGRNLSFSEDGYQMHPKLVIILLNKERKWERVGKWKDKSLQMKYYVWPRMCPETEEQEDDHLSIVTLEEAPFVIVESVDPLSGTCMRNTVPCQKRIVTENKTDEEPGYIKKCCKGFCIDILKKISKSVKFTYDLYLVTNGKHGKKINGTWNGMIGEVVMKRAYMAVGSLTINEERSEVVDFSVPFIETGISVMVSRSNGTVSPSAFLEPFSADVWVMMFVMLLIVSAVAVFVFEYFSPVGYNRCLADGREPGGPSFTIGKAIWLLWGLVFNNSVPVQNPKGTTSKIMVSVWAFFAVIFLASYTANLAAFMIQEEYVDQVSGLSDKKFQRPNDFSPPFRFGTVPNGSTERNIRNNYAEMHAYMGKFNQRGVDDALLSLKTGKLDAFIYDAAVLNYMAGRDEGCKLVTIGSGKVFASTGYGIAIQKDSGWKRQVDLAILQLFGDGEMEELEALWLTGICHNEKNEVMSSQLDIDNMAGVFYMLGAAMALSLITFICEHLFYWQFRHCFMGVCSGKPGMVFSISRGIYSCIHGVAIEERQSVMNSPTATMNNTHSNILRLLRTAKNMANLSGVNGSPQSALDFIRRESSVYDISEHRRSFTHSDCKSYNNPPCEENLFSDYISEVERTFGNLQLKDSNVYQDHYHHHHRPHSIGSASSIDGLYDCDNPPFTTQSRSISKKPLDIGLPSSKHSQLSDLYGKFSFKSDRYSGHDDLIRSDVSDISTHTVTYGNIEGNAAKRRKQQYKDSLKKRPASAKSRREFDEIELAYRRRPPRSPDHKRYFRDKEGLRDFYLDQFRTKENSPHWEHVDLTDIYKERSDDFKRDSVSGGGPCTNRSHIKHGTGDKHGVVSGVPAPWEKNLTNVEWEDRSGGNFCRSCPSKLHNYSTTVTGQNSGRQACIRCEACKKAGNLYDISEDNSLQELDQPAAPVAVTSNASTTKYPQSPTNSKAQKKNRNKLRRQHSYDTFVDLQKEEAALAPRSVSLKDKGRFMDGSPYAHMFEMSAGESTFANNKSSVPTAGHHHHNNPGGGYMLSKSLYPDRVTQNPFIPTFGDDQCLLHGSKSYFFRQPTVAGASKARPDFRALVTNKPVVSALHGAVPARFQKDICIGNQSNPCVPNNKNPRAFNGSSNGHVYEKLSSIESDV
Chain of histamine H2 (P25021 whole entry): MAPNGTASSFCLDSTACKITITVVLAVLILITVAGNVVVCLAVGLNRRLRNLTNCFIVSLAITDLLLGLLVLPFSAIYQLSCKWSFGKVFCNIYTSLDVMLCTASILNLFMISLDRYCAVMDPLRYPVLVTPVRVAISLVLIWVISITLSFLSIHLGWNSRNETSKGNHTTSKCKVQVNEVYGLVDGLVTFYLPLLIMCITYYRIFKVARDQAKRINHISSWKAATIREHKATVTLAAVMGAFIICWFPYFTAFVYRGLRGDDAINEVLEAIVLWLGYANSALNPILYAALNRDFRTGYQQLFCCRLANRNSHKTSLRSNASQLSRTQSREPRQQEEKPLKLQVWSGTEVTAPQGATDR
Chain of 5-HT2A (P28223 whole entry): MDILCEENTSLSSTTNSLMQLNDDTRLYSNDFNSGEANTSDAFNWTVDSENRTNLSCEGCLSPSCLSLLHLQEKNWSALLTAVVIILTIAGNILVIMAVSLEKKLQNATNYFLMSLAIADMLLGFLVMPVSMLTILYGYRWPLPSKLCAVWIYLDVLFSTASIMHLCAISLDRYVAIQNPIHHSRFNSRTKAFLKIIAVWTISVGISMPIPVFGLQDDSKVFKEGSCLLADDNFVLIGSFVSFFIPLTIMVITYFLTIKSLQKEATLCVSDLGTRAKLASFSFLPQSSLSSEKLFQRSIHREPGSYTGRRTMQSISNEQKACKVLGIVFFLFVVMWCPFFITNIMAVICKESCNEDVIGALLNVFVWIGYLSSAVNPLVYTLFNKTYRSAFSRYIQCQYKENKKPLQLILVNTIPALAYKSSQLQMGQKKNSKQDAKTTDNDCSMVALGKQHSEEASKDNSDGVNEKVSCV
Chain of β3-adrenergic (P13945 whole entry): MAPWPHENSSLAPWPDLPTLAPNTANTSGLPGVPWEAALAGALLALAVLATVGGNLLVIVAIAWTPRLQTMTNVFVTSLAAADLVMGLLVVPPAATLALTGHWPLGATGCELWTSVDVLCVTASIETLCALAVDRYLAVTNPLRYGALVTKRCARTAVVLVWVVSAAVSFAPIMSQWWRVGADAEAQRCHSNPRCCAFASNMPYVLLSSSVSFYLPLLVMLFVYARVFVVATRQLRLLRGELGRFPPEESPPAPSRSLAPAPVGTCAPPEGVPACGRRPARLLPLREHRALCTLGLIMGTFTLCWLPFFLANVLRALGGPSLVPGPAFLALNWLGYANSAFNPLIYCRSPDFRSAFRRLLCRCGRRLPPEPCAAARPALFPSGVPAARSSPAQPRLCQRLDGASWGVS
Chain of histamine H1 (P35367 whole entry): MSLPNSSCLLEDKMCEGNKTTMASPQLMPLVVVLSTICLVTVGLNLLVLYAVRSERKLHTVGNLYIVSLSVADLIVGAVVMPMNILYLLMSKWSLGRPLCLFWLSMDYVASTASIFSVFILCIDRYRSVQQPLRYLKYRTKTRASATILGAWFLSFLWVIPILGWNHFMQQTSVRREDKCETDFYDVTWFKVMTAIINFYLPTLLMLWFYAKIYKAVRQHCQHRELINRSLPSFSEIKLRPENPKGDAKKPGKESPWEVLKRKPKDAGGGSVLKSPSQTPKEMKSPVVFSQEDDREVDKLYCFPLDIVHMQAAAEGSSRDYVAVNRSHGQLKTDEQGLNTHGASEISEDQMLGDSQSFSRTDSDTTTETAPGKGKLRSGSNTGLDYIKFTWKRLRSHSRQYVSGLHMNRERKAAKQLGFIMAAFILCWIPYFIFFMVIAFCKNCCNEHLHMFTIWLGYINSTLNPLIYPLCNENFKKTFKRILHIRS
Chain of 5-HT uptake (P31645 whole entry): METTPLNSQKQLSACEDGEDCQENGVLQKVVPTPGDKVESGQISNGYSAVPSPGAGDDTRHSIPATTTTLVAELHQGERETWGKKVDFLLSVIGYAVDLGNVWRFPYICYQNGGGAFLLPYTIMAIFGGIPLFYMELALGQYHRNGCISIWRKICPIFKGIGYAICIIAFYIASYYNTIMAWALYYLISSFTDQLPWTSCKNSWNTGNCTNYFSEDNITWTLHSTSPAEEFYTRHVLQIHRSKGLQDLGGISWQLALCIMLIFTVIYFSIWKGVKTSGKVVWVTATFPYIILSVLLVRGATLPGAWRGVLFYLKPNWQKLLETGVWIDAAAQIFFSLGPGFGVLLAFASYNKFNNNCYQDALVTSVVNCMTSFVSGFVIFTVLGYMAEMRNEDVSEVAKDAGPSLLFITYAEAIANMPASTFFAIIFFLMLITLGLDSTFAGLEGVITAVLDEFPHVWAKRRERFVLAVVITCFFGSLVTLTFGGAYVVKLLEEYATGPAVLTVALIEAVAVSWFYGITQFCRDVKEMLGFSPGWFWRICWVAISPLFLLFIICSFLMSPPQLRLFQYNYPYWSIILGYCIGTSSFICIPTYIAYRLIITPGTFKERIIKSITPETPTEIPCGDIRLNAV
Chain of 5-HT7 (P34969 whole entry, species assumed): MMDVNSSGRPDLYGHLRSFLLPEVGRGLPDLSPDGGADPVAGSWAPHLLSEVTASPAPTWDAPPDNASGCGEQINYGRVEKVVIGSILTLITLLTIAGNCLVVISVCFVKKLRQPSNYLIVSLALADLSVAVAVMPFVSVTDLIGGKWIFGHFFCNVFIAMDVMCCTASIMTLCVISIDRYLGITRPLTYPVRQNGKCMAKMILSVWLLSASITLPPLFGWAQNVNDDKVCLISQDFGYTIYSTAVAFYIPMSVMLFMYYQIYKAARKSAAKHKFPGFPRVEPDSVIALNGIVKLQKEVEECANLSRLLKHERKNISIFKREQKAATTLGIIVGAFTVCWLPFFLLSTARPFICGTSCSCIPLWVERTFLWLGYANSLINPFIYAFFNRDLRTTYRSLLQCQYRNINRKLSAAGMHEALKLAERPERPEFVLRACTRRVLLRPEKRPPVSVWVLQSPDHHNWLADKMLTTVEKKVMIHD

Structure (SMILES)	neurotrophic effects [1]	neuroprotective effect (survival of retinal ganglion cells) [3]	concentration with statistically significant prolongation of APD90 [4]	maximum effect on APD90 [4]	efficacy for recovery of excitatory post synaptic potentials following hypoxia (hippocampal slices)	inhibition of NMDA-induced firing rate [5]	pKi (NMDA receptor)	Threshold Dose, Heart Rate Decrease [6]	Threshold Dose, Mean Blood Pressure Decrease [6]	Threshold Dose, QTc Prolongation [6]	also measured
O[C@@H](CN1CCC(Cc2ccc(F)cc2)CC1)c1ccc(Cl)cc1 [R-eliprodil, R-α-(4-chlorophenyl)-4-(4-fluorophenylmethyl)-1-peperidineethanol]	Equipotency	marked neuroprotective activity; also recorded: as efficacious as a protectant as racemic eliprodil	≥ 100 nM	less than that seen with S(+) eliprodil	substantial recovery; also recorded: more efficacious than either racemic or S-eliprodil	strongly inhibit	6.70	0.3 mg/kg	1.0 mg/kg	0.1 mg/kg	plasma level [2]: 34.9 ± 2.8 ng/mL; potency for recovery of evoked epsps (EC50 comparison) (hippocampal slices; bath applied 30 minutes before 15 minute hypoxia, recovery 60 minutes after reoxygenation, p<0.05, Figure 2): statistically significantly more potent
OC(CN1CCC(Cc2ccc(F)cc2)CC1)c1ccc(Cl)cc1 (racemic) [Eliprodil]	Equipotency	marked neuroprotective activity		equal to that of S(+) eliprodil	less effective	strongly inhibit		0.1 mg/kg	1.0 mg/kg	0.03 mg/kg	affinity (α1-adrenergic): sub-micromolar; affinity (5-HT2A): sub-micromolar; QTc prolongation (humans): asymptomatic QTc prolongation; binding to sigma receptors (sigma receptors): potently bind; affinity (histamine H1): sub-micromolar; affinity (5-HT7): sub-micromolar; affinity (β3-adrenergic): sub-micromolar; affinity (histamine H2): sub-micromolar; affinity (5-HT uptake): sub-micromolar; affinity (5-HT1A): sub-micromolar
O[C@H](CN1CCC(Cc2ccc(F)cc2)CC1)c1ccc(Cl)cc1 [S-eliprodil]	Equipotency	ineffective	≥ 30 nM		less effective	almost inactive at the highest dose tested	5.00	0.1 mg/kg	1.0 mg/kg	0.01 mg/kg	
